Drawing on patent US3934024A, “Method of producing analgesia and compositions useful therein” (Sharps Associates, priority 1975, dated 1976), this text covers ED50 and Percent inhibition for one molecule.

In one experiment the test system is rat. Put plainly: rat tail flick test for analgesic activity. It counts as in vivo. The following applies: oral, 95% C.L. = 0.9 - 4.8. An excerpt:
In the rat tail flick test for analgesic activity [D'Amour and Smith, J. Pharmacol. Exper. Therap.
In general terms: Hot-plate and tail-flick tests time the reaction to a heat stimulus.

The subject of a further experiment is mice. Put plainly: Acetic acid writhing test in mice (oral). The note with it: for Percent inhibition: acetic acid writhing, writhes counted for 20 minutes beginning 5 minutes after acid injection. It counts as in vivo. Here is the method:
The analgesic activity of the compound was evaluated in an acetic acid writhing test. The acetic acid writhing test used was modified from that described by Whittle, Brit J. Pharmacol., 22, 296 (1964). The number of writhes were counted for a 20 minute period beginning 5 minutes after the injection of the acid. Analgetic potency was calculated from the difference between the test groups and their controls.
Acetic acid writhing test in mice (oral)

SMILES strings stand for the structures.

What is called ED50 is the dose at which the effect has come halfway, by size or by number of responders. A high value points to weaker potency. Regarding `CCCCCC(C)C(C)c1cc(O)c2c(c1)OC(C)(C)C1=C2CCCS1` (stereo not drawn) [Compound I, 1,2-dihydro-5,5-dimethyl-10-hydroxy-8-(3-methyl-2-octyl)-3H,5H-thiopyrano[2,3-c][1]benzopyran], the 50% effective dose (ED50) with rat is 2.7 mg/kg; in the experiment with mice (Mus musculus, oral, 95% C.L. = 9.2 - 12.4), 10.8 mg/kg. Further, the Percent inhibition in the experiment with mice (5 mg/kg p.o.) worked out at 20.7%; with mice (10 mg/kg p.o.), 48.9%; with mice (20 mg/kg p.o.), 74.0%; with mice (40 mg/kg p.o.), 95.6%.
